Laboratory results taken from patent US9963703B2, “Compositions and methods for treating pancreatic cancer” (Autotelic LLC, priority 2016, dated 2018).
In the oligonucleotide strings, read from the 5' end, every base follows the letter of its sugar. An asterisk marks phosphorothioate; unmarked linkages are phosphodiester. Other units and linkages are bracketed, terminal groups are in braces. A string of capitals states the bases alone. d = 2'-deoxy (DNA)

Columns and labels:
[1] = Acute single dose toxicity study in mice; type: in vivo; details: 1 of 10 mice died (LLD10)
Protocol: The clinical starting dose for the 7-days-on and 7-days-off schedule was based on the Lowest-Observed-Adverse-Effect-Level (LOAEL) devoid of severe toxicity in Cynomolgus monkeys as the most relevant species. This LOAEL of 4 mg/kg body weight (b.w.)/day is equivalent to approximately 1.3 mg/kg b.w./day or 48 mg/m^2/day on a body surface area basis in human adults. These numbers were rounded down and the safe starting dose was defined at 40 mg/m^2/day, equivalent to approximately 1 mg/kg b.w./day in humans. An alternative approach would have been based on the lowest lethal dose (LLD) of 300 mg/kg b.w. obtained in the acute single dose toxicity study in mice (in rats it was determined at 1000 mg/kg), at which 1 of 10 mice died (LLD10). According to the standard method, 10% of this dose (30 mg/kg) on a body surface area basis would then be defined as the clinical starting dose resulting in 90 mg/m^2/day. In the end, the lower of the two alternatives was chosen as starting dose.

[2] = tested on: pancreatic cancer; assay: Phase I/II study P-001, efficacy (PFS, OS) in pancreatic cancer patients; type: in vivo, human
Protocol: At screening, up to 10 “measurable lesions” (i.e. lesions that could be accurately measured in at least 1 dimension with a longest diameter of 2 cm) representative of all involved organs were identified as “target lesions” for tumor response assessment and were measured and documented. All other lesions were defined and recorded as “non-target lesions”. Tumor response was determined by the local investigator every 8 weeks after start of the first trabedersen cycle during follow-up visits, irrespective of whether the patient was still on treatment or off treatment. The tumor assessment was based on Response Evaluation Criteria in Solid Tumors (RECIST 1.0) criteria. The categories of overall tumor response are as follows: (1) Complete response (CR): disappearance of all target and non-target lesions and normalization of tumor marker level; (2) Partial response (PR): at least 30% decrease in the sum of the longest diameter (LD) of target lesions (baseline sum LD as reference) and/or persistence of one or more non-target lesions and/or maintenance of tumor marker level above normal limits; (3) Stable disease (SD): less than 30% decrease or less than 20% increase in sum LD target lesions (smallest sum LD since treatment start as reference) and/or persistence of one or more non-target lesions and/or maintenance of tumor marker level above normal limits; (4) Progressive disease (PD) At least 20% increase in sum LD target lesions (smallest sum LD since treatment start as reference) and/or unequivocal progression of existing nontarget lesions and/or appearance of one or more new lesions; and (5) Unknown.
Progression-free survival (PFS) was defined as the time from Day 1 until tumor progression or death from any cause. The date of progression was either the date of the image showing progression or the date of treatment termination in case one of the reasons for treatment termination was tumor progression (referring to clinical progression as assessed by the Investigator), whichever occurred first.
Overall survival (OS) was defined as the time from Day 1 until death from any cause. All patients were followed for survival during the follow-up assessments every 8 weeks. The survival status was documented at the Final Visit (Day 29) and during the 8-weekly post-treatment follow-up assessments, and was continued to be collected after study closure until database lock or until the patient was lost to follow-up.
There were […] line patients and 11 third line and beyond on the 4 days on and 10 days off regimen. The PFS/OS (progression free survival/overall survival ratio) of these second line patients in months were: 1.87/5.60 (N=6), 1.87/9.93 (N=11) and 2.72/11.80 (N=5) at increasing mean dose of 140 mg/m^2/day, 167 mg/m^2/day, and 196 mg/m^2/day, respectively. The OS of 9.93 and 11.80 are higher than the highest reported in the 65 trials reported in the literature during 1997-2015 (range=2.50-9.20/median=5.50). The corresponding PFS values were in line with reported literature (range=0.00-7.65/median=2.43). […] Trabedersen itself was not having an impact on the tumor (FIG. 1).

[3] = FIG. 1, trabedersen as second line treatment
[4] = second line pancreatic cancer patients, 4 days on/10 days off, mean dose 140 mg/m^2/day (N=6)
[5] = second line pancreatic cancer patients, 4 days on/10 days off, mean dose 167 mg/m^2/day (N=11)
[6] = second line pancreatic cancer patients, 4 days on/10 days off, mean dose 196 mg/m^2/day (N=5)

**Q.** For “trabedersen: TGF-beta2 specific phosphorothioate antisense oligodeoxynucleotide with the sequence 5′-CGGCATGTCTATTTTGTA-3′ (SEQ ID No: 1) (antisense dC*dG*dG*dC*dA*dT*dG*dT*dC*dT*dA*dT*dT*dT*dT*dG*dT*dA)”, which “lowest lethal dose (LLD)” value [1] is on record?
**A.** 300 mg/kg b.w.

**Q.** And the OS ([2]; 4/10 cohort treated with subsequent chemotherapies, p=0.0023, Log-rank)?
**A.** 14.7 mos

**Q.** What about the OS ([2]; 4/10 cohort without subsequent chemotherapies) of the same substance?
**A.** 2.93 mos

**Q.** And the “OS compared to reported median OS” value [2, 3]?
**A.** higher than reported in the literature

**Q.** What about the “PFS compared to reported median PFS” value [2, 3] of the same substance?
**A.** not significantly different

**Q.** And the “effect on the tumor, as indicated by overall survival rate” value ([2]; FIG. 3, trabedersen alone)?
**A.** does not have a significant effect on the tumor

**Q.** And the “effect on overall survival rate” value ([2]; FIG. 3, trabedersen therapy followed by chemotherapy)?
**A.** significant increase in the overall survival rate

**Q.** And the OS ([2]; chemotherapy on 2nd line followed by trabedersen 4/10 regimen as third line (N=9), p=0.046 vs trabedersen first)?
**A.** 2.80 mos

**Q.** What about the OS [2, 4] of the same substance?
**A.** 5.60 months

**Q.** And the PFS [2, 4]?
**A.** 1.87 months

**Q.** And the OS [2, 5]?
**A.** 9.93 months

**Q.** And the PFS [2, 5]?
**A.** 1.87 months

**Q.** What about the OS [2, 6] of the same substance?
**A.** 11.80 months

**Q.** And the PFS [2, 6]?
**A.** 2.72 months

**Q.** And the OS ([2]; trabedersen on 2nd line followed with subsequent therapies (N=11), p=0.046, Log-rank)?
**A.** 9.93 mos
